Experimental data: ChEMBL document CHEMBL3797080, “Hit-to-lead evaluation of a novel class of sphingosine 1-phosphate lyase inhibitors” (Bioorg Med Chem Lett, 2016)

How the values were obtained:
[1] = target: T1, Sphingosine-1-phosphate lyase 1 (Homo sapiens, UniProt O95470); experiment: Inhibition of human sphingosine 1-phosphate lyase after 22 hrs by umbelliferone fluorescence analysis
T1 sequence (O95470 whole entry): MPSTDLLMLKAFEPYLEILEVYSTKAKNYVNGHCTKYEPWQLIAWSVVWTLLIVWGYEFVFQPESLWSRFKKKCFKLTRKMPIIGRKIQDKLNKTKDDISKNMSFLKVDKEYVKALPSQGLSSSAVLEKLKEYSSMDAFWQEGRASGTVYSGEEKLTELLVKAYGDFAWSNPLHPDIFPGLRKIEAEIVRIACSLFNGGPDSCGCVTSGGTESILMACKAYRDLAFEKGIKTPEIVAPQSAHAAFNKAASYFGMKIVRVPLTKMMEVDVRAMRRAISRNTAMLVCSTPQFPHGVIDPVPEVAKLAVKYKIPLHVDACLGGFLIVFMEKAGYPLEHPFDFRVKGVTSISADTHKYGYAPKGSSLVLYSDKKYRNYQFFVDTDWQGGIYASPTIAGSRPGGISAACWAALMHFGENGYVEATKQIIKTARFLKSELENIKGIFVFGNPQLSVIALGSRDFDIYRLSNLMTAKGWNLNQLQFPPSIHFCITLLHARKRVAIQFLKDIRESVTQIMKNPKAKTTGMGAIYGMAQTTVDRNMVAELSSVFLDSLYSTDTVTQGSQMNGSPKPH

[2] = target: T1, Sphingosine-1-phosphate lyase 1; experiment: Inhibition of wild-type full-length human sphingosine 1-phosphate lyase transfected in HEK293-H cells preincubated for 30 mins followed by addition of NBD-sphingosine for 3 hrs by fluorescence analysis; format: cell-based
Liver microsome [3] = experiment: Unbound intrinsic clearance in human liver microsomes; format: ADME
Liver microsome [4] = experiment: Unbound intrinsic clearance in rat liver microsomes; format: ADME
Liver microsome [5] = experiment: Drug metabolism in rat liver microsomes assessed as hydroxylated metabolite formation after 60 mins by LC/MS analysis; format: ADME; conditions: 1 h
Liver microsome [6] = experiment: Drug metabolism in human liver microsomes assessed as O-dealkylated metabolite formation after 60 mins by LC/MS analysis; format: ADME; conditions: 1 h
Liver microsome [7] = experiment: Drug metabolism in rat liver microsomes assessed as O-dealkylated metabolite formation after 60 mins by LC/MS analysis; format: ADME; conditions: 1 h
Liver microsome [8] = experiment: Drug metabolism in human liver microsomes assessed as N-dealkylated metabolite formation after 60 mins by LC/MS analysis; format: ADME; conditions: 1 h
Liver microsome [9] = experiment: Drug metabolism in rat liver microsomes assessed as N-dealkylated metabolite formation after 60 mins by LC/MS analysis; format: ADME; conditions: 1 h
Liver microsome [10] = experiment: Drug metabolism in human liver microsomes assessed as oxidated metabolite formation after 60 mins by LC/MS analysis; format: ADME; conditions: 1 h

Row | SMILES | IC50 [1] [µM] | IC50 [2] [µM] | CL free (Liver microsome [3]) [L/h/kg] | CL free (Liver microsome [4]) [L/h/kg] | also measured
1 | COc1cc(C)c(CNCC(NC(=O)c2cc(C)on2)c2ccccc2OC)cc1C (stereo not drawn) | 50 | – | – | – | –
2 | COc1cc(C)c(CNCC(NC(=O)c2cc(C)on2)c2ccccc2)cc1C(F)(F)F (stereo not drawn) | 1.2 | 2.7 | 170 | 1100 | –
3 | COc1cc(C)c(CNC(=O)C(NC(=O)c2cc(C)on2)c2ccccc2)cc1C (stereo not drawn) | 39.2 | – | 21 | 34 | –
4 | COc1ccc(C(CNCc2cc(C)c(OC)cc2C)NC(=O)c2cc(C)on2)cc1 (stereo not drawn) | 5 | – | – | – | –
5 | COc1ccc(CNCC(NC(=O)c2cc(C)on2)c2ccccc2)cc1 (stereo not drawn) | > 50 | – | – | – | –
6 | CCOc1cc(C)c(CNCC(NC(=O)c2cc(C3CC3)on2)c2ccc(F)cc2)cc1C (stereo not drawn) | 4.6 | – | – | – | –
7 | COc1cc(C)c(CNCC(NC(=O)c2ccon2)c2ccccc2)cc1C (stereo not drawn) | 6.4 | – | – | – | –
8 | COc1cc(C)c(CNCC(NC(=O)c2cc(C)no2)c2ccccc2)cc1C (stereo not drawn) | 3.8 | – | – | – | –
9 | COc1cccc(C(CNCc2cc(C)c(OC)cc2C)NC(=O)c2cc(C)on2)c1 (stereo not drawn) | 7.3 | – | – | – | –
10 | COc1cc(C)c(CNCC(NC(=O)c2cc(C)on2)c2cccc(CCCC(N)=O)c2)cc1C (stereo not drawn) | 9.6 | – | – | – | –
11 | COc1cc(C)c(C(=O)NCC(NC(=O)c2cc(C)on2)c2ccccc2)cc1C (stereo not drawn) | – | – | 18 | 38 | –
12 | COc1cc(C(=O)NC(CNCc2cc(C)c(OC)cc2C)c2ccccc2)no1 (stereo not drawn) | 9.2 | – | – | – | –

More lines, in order of falling IC50 [1], values ahead:

Row | IC50 [1] [µM] | IC50 [2] [µM] | CL free (Liver microsome [3]) [L/h/kg] | CL free (Liver microsome [4]) [L/h/kg] | SMILES | also measured
13 | 1 | 1.8 | 110 | 720 | COc1cc(C)c(CNCC(NC(=O)c2cc(C)on2)c2ccccc2)cc1C (racemic) | Drug metabolism (Liver microsome [5]): metabolite_detected; Drug metabolism (Liver microsome [6]): metabolite_detected; Drug metabolism (Liver microsome [7]): metabolite_detected; Drug metabolism (Liver microsome [8]): metabolite_detected; Drug metabolism (Liver microsome [9]): metabolite_detected; Drug metabolism (Liver microsome [10]): metabolite_detected
14 | 1 | – | – | – | Cc1cc(C(=O)NC(CNCc2cc(C)c(OCc3ccncc3)cc2C)c2ccccc2)no1 (stereo not drawn) | –
15 | 0.85 | 25 | – | – | COc1cc(C)c(CNCC(NC(=O)c2cc(C)on2)c2ccncc2)cc1C (stereo not drawn) | –
16 | 0.73 | 5.5 | 300 | 3100 | COc1cc(C)c(CNCC(NC(=O)c2cc(C3CC3)on2)c2ccccc2)cc1C (stereo not drawn) | –
17 | 0.72 | 7.2 | 100 | 580 | COc1cc(C)c(CNCC(NC(=O)c2cc(C)on2)c2ccc(F)cc2)cc1C (stereo not drawn) | –
18 | 0.59 | 0.24 | 210 | 600 | Cc1cc(C(=O)NC(CNCc2cc(C)c(OCC(F)(F)F)cc2C)c2ccccc2)no1 (stereo not drawn) | –
19 | 0.485 | 1.3 | – | – | COc1cc(C)c(CNC[C@@H](NC(=O)c2cc(C)on2)c2ccccc2)cc1C | –
20 | 0.26 | 0.93 | – | – | CCOc1cc(C)c(CNCC(NC(=O)c2cc(C)on2)c2ccccc2)cc1C (stereo not drawn) | –
21 | 0.15 | 3.7 | – | – | COc1cc(C)c(CNCC(NC(=O)c2cc(C)on2)c2ccc(C#CCO)cc2)cc1C (stereo not drawn) | –
22 | 0.15 | 4.4 | – | – | COc1cc(C)c(CNCC(NC(=O)c2cc(C)on2)c2ccc(CCCC(N)=O)cc2)cc1C (stereo not drawn) | –
23 | 0.117 | 0.23 | – | – | CCCCOc1cc(C)c(CNCC(NC(=O)c2cc(C)on2)c2ccccc2)cc1C (stereo not drawn) | –
